Columns and labels:
[1] = system: directly sowed Oryza sativa; assay: Test Example 3: effect on crop by application to foliage (Wagner pot, water depth 0.1-0.5 cm); type: in vivo; details: Nineteenth Table; application herbicide amount 320 g/ha
Method in brief: (§1)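 Post-emergence foliar application at a stated g/ha rate to plants grown 14 days from seed in alluvial soil, greenhouse 25–30 °C. Visual score after 3 weeks: 0 (≤5% effect) through 5 (≥90%).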

[2] = system: Cyperus difformis; assay: Test Example 3: herbicidal effect by application to foliage (Wagner pot, water depth 0.1-0.5 cm); type: in vivo; details: Nineteenth Table; application herbicide amount 320 g/ha
Method in brief: as §1

[3] = system: Leptochloa chinensis; assay: as above; type: in vivo; details: Nineteenth Table; application herbicide amount 320 g/ha
Method in brief: as §1

[4] = system: Echinochloa crus-galli var. crus-galli; assay: as above; type: in vivo; details: Nineteenth Table; application herbicide amount 320 g/ha
Method in brief: as §1

[5] = system: Galium spurium; assay: Test Example 4: herbicidal effect by application to foliage (diluvial soil, plastic box); type: in vivo; details: application to foliage, application herbicide amount 320 g/ha
Method in brief: (§2)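 Emulsion-formulated compound, diluted to a predetermined g/ha dose, applied by small sprayer to leaves and stems of 14-day-old seedlings grown in sterilized diluvial soil. Effect rated on 0–5 herbicidal-ratio scale three weeks on.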

[6] = system: Lolium multiflorum Lam.; assay: as above; type: in vivo; details: application to foliage, application herbicide amount 320 g/ha
Method in brief: as §2

[7] = system: Veronica persica; assay: as above; type: in vivo; details: application to foliage, application herbicide amount 320 g/ha
Method in brief: as §2

[8] = system: Digitaria ciliaris; assay: as above; type: in vivo; details: application to foliage, application herbicide amount 320 g/ha
Method in brief: as §2

[9] = system: Abutilon theophrasti; assay: as above; type: in vivo; details: application to foliage, application herbicide amount 320 g/ha
Method in brief: as §2

[10] = system: Setaria viridis; assay: as above; type: in vivo; details: application to foliage, application herbicide amount 320 g/ha
Method in brief: as §2

[11] = system: Echinochloa crus-galli var. crus-galli; assay: as above; type: in vivo; details: application to foliage, application herbicide amount 320 g/ha
Method in brief: as §2

[12] = system: Amaranthus retroflexus; assay: as above; type: in vivo; details: application to foliage, application herbicide amount 320 g/ha
Method in brief: as §2

[13] = system: Alopecurus myosuroides; assay: as above; type: in vivo; details: application to foliage, application herbicide amount 320 g/ha
Method in brief: as §2

[14] = system: Apera spica-venti.; assay: as above; type: in vivo; details: application to foliage, application herbicide amount 320 g/ha
Method in brief: as §2

[15] = system: Stellaria media; assay: as above; type: in vivo; details: application to foliage, application herbicide amount 320 g/ha
Method in brief: as §2

[16] = system: Chenopodium album; assay: as above; type: in vivo; details: application to foliage, application herbicide amount 320 g/ha
Method in brief: as §2

[17] = system: Avena fatua; assay: as above; type: in vivo; details: application to foliage, application herbicide amount 320 g/ha
Method in brief: as §2

[18] = system: Zea mays; assay: Test Example 4: effect on crop by application to foliage (diluvial soil, plastic box); type: in vivo; details: application to foliage, application herbicide amount 320 g/ha
Method in brief: as §2

[19] = system: directly sowed Oryza sativa; assay: as above; type: in vivo; details: application to foliage, application herbicide amount 320 g/ha
Method in brief: as §2

[20] = system: Glycine max; assay: as above; type: in vivo; details: application to foliage, application herbicide amount 320 g/ha
Method in brief: as §2

[21] = system: Brassica campestris L.; assay: as above; type: in vivo; details: application to foliage, application herbicide amount 320 g/ha
Method in brief: as §2

[22] = system: Beta vulgaris ssp. vulgaris; assay: as above; type: in vivo; details: application to foliage, application herbicide amount 320 g/ha
Method in brief: as §2

[23] = system: Triticum aestivum; assay: as above; type: in vivo; details: application to foliage, application herbicide amount 320 g/ha
Method in brief: as §2

Row | melting point [°C] | SMILES | b (directly sowed Oryza sativa) effect on crop grade [1] | E (Cyperus difformis) herbicidal ratio grade [2] | D (Leptochloa chinensis) herbicidal ratio grade [3] | H (Echinochloa crus-galli var. crus-galli) herbicidal ratio grade [4] | Q (Galium spurium) herbicidal effect [5] | K (Lolium multiflorum Lam.) herbicidal effect [6] | R (Veronica persica) herbicidal effect [7] | F (Digitaria ciliaris) herbicidal effect [8] | M (Abutilon theophrasti) herbicidal effect [9] | G (Setaria viridis) herbicidal effect [10] | H (Echinochloa crus-galli var. crus-galli) herbicidal effect [11] | N (Amaranthus retroflexus) herbicidal effect [12] | J (Alopecurus myosuroides) herbicidal effect [13] | L (Apera spica-venti.) herbicidal effect [14] | P (Stellaria media) herbicidal effect [15] | O (Chenopodium album) herbicidal effect [16] | I (Avena fatua) herbicidal effect [17] | b (Zea mays) effect on crop [18] | d (directly sowed Oryza sativa) effect on crop [19] | other results
1 | 189 to 190 | CC(C)c1nnc2c(C(=O)Nc3nnnn3C)ccc(Cl)n12 [2-004, 5-Chloro-3-isopropyl-N-(1-methyl-1H-tetrazol-5-yl)-[1,2,4]triazolo[4,3-a]pyridine-8-carboxamide] | – | – | – | – | – | – | – | – | – | – | – | – | – | – | – | – | – | – | – | –
2 | 185 to 186 | Cc1nonc1NC(=O)c1ccc(C(F)(F)F)n2c(C(C)C)nnc12 [3-001, 3-Isopropyl-N-(4-methyl-1,2,5-oxadiazol-3-yl)-5-(trifluoromethyl)-[1,2,4]triazolo[4,3-a]pyridine-8-carboxamide] | – | – | – | – | – | – | – | – | – | – | – | – | – | – | – | – | – | – | – | –
3 | 238 to 241 | Cc1nnc(NC(=O)c2ccc(C(F)(F)F)n3c(Cl)nnc23)o1 [1-013, 3-Chloro-N-(5-methyl-1,3,4-oxadiazol-2-yl)-5-(trifluoromethyl)-[1,2,4]triazolo[4,3-a]pyridine-8-carboxamide] | 0 (Herbicidal ratio of 5% or less (almost no effect)) | 3 (Herbicidal ratio of 40% or more and less than 70%) | 4 (Herbicidal ratio of 70% or more and less than 90%) | 3 (Herbicidal ratio of 40% or more and less than 70%) | 1 (Herbicidal ratio of 5% or more and less than 20%) | 1 (Herbicidal ratio of 5% or more and less than 20%) | 3 (Herbicidal ratio of 40% or more and less than 70%) | 3 (Herbicidal ratio of 40% or more and less than 70%) | 3 (Herbicidal ratio of 40% or more and less than 70%) | 1 (Herbicidal ratio of 5% or more and less than 20%) | 4 (Herbicidal ratio of 70% or more and less than 90%) | 3 (Herbicidal ratio of 40% or more and less than 70%) | 1 (Herbicidal ratio of 5% or more and less than 20%) | 0 (Herbicidal ratio of 5% or less (almost no effect)) | 4 (Herbicidal ratio of 70% or more and less than 90%) | 5 (Herbicidal ratio of 90% or more (almost completely withered)) | 0 (Herbicidal ratio of 5% or less (almost no effect)) | 0 (Herbicidal ratio of 5% or less (almost no effect)) | 0 (Herbicidal ratio of 5% or less (almost no effect)) | c (Glycine max) effect on crop [20]: 0 (Herbicidal ratio of 5% or less (almost no effect)); g (Brassica campestris L.) effect on crop [21]: 0 (Herbicidal ratio of 5% or less (almost no effect)); f (Beta vulgaris ssp. vulgaris) effect on crop [22]: 3 (Herbicidal ratio of 40% or more and less than 70%); e (Triticum aestivum) effect on crop [23]: 1 (Herbicidal ratio of 5% or more and less than 20%)
4 | – | Cc1nnc(NC(=O)c2ccc(C(F)(F)F)n3c(-c4ccc(C(F)(F)F)cc4)nnc23)o1 [1-045] | 0 (Herbicidal ratio of 5% or less (almost no effect)) | 4 (Herbicidal ratio of 70% or more and less than 90%) | 3 (Herbicidal ratio of 40% or more and less than 70%) | 1 (Herbicidal ratio of 5% or more and less than 20%) | 2 (Herbicidal ratio of 20% or more and less than 40%) | 0 (Herbicidal ratio of 5% or less (almost no effect)) | 3 (Herbicidal ratio of 40% or more and less than 70%) | 3 (Herbicidal ratio of 40% or more and less than 70%) | 4 (Herbicidal ratio of 70% or more and less than 90%) | 1 (Herbicidal ratio of 5% or more and less than 20%) | 2 (Herbicidal ratio of 20% or more and less than 40%) | 4 (Herbicidal ratio of 70% or more and less than 90%) | 0 (Herbicidal ratio of 5% or less (almost no effect)) | 0 (Herbicidal ratio of 5% or less (almost no effect)) | 2 (Herbicidal ratio of 20% or more and less than 40%) | 5 (Herbicidal ratio of 90% or more (almost completely withered)) | 0 (Herbicidal ratio of 5% or less (almost no effect)) | 0 (Herbicidal ratio of 5% or less (almost no effect)) | 1 (Herbicidal ratio of 5% or more and less than 20%) | c (Glycine max) effect on crop [20]: 0 (Herbicidal ratio of 5% or less (almost no effect)); g (Brassica campestris L.) effect on crop [21]: 3 (Herbicidal ratio of 40% or more and less than 70%); f (Beta vulgaris ssp. vulgaris) effect on crop [22]: 3 (Herbicidal ratio of 40% or more and less than 70%); e (Triticum aestivum) effect on crop [23]: 0 (Herbicidal ratio of 5% or less (almost no effect))

From patent US9708314B2, “Heterocyclic amide compound” (NISSAN CHEMICAL INDUSTRIES, LTD., priority 2013, dated 2017)
